Earlier results, collected in patent US10548906B2, “Methods of promoting hepatic regeneration” (Intercept Pharmaceuticals, Inc., priority 2015, dated 2020).

Tests used:
[1] = system: cholestatic animals; details: cited from earlier work
[2] = system: mice; details: diet enriched with cholic acid, FXR dependent; cited from earlier work
[3] = system: Ntcp; details: mice with intrahepatic (but not extrahepatic) cholestasis; cited from earlier work

Compound | biliary injury [1] | also measured
C[C@H](CCC(=O)O)[C@H]1CC[C@H]2[C@@H]3[C@@H](O)C[C@@H]4C[C@H](O)CC[C@]4(C)[C@H]3CC[C@]12C [ursodeoxycholic acid] | increase in biliary injury | –
Cc1c(-c2cnccn2)ssc1=S [oltipraz] | increase in biliary injury | –
C[C@H](CCC(=O)O)[C@H]1CC[C@H]2[C@@H]3[C@H](O)C[C@@H]4C[C@H](O)CC[C@]4(C)[C@H]3C[C@H](O)[C@]12C [cholic acid] | – | liver growth [2]: induced spontaneous liver growth
CC(C)c1onc(-c2c(Cl)cccc2Cl)c1COc1ccc(/C=C/c2cccc(C(=O)O)c2)c(Cl)c1 [GW4064] | – | Ntcp regulation [3]: loss of Ntcp suppression
